The source made the active and inactive calls. The calls are words filed in the database; no cut-off is given here.
Experiments:
[1] = tested on: LNCaP; assay: Antiproliferative activity against LNCAP cell line at 10 uM; assay type: functional; details: Homo sapiens
[2] = tested on: NCI-H460; assay: Antiproliferative activity against H460 cell line at 10 uM; assay type: functional; details: Homo sapiens
[3] = (§1) Antiproliferative activity against 394NL cell line at 10 uM; assay type: functional; details: Homo sapiens; values are per cent of control
[4] = (§2) Antiproliferative activity against MDA467 cell line at 10 uM; assay type: functional; details: Homo sapiens; values are per cent of control
[5] = tested on: MCF7; assay: Antiproliferative activity against MCF7 cell line at 10 uM; assay type: functional; details: Homo sapiens
[6] = (§3) Antiproliferative activity against 1138L cell line at 10 uM; assay type: functional; details: Homo sapiens; values are per cent of control
[7] = tested on: DU-145; assay: Antiproliferative activity against DU145 cell line at 10 uM; assay type: functional; details: Homo sapiens
[8] = (§4) Antiproliferative activity against 251L cell line at 10 uM; assay type: functional; details: Homo sapiens; values are per cent of control
[9] = (§5) Antiproliferative activity against MDA231 cell line at 10 uM; assay type: functional; details: Homo sapiens, MDA-MB-231; values are per cent of control
[10] = tested on: OVCAR-3; assay: Antiproliferative activity against OVCAR-3 cell line at 10 uM; assay type: functional; details: Homo sapiens
[11] = tested on: A498; assay: Antiproliferative activity against A498 cell line at 10 uM; assay type: functional; details: Homo sapiens
[12] = tested on: SF-268; assay: Antiproliferative activity against SF268 cell line at 10 uM; assay type: functional; details: Homo sapiens
[13] = tested on: HUVEC; assay: Inhibition of HUVEC tubule formation assessed as length of branches at 25 pM; assay type: functional, Homo sapiens
[14] = tested on: HUVEC; assay: Inhibition of HUVEC tubule formation assessed as number of branches at 75 pM; assay type: functional, Homo sapiens
[15] = tested on: HUVEC; assay: Inhibition of HUVEC tubule formation assessed as number of branches at 25 pM; assay type: functional, Homo sapiens
[16] = Antiproliferative activity against NCI60 cell line; assay type: functional, cell-based; details: Homo sapiens
[17] = tested on: HUVEC; assay: Growth inhibition in HUVEC; assay type: functional, cell-based; details: Homo sapiens
[18] = tested on: HUVEC; assay: Inhibition of HUVEC tubule formation assessed as length of branches at 75 pM; assay type: functional, Homo sapiens
[19] = tested on: LNCaP; assay: Antiproliferative activity against LNCAP cell line at 3 uM; assay type: functional; details: Homo sapiens
[20] = Antiproliferative activity against MDA467 cell line at 3 uM; assay type: functional; details: Homo sapiens
[21] = tested on: NCI-H460; assay: Antiproliferative activity against H460 cell line at 3 uM; assay type: functional; details: Homo sapiens
[22] = Antiproliferative activity against 1138L cell line at 3 uM; assay type: functional; details: Homo sapiens
[23] = tested on: SF-268; assay: Antiproliferative activity against SF268 cell line at 3 uM; assay type: functional; details: Homo sapiens
[24] = Antiproliferative activity against 394NL cell line at 3 uM; assay type: functional; details: Homo sapiens
[25] = Antiproliferative activity against MDA231 cell line at 3 uM; assay type: functional; details: Homo sapiens, MDA-MB-231
[26] = tested on: OVCAR-3; assay: Antiproliferative activity against OVCAR-3 cell line at 3 uM; assay type: functional; details: Homo sapiens
[27] = tested on: DU-145; assay: Antiproliferative activity against DU145 cell line at 3 uM; assay type: functional; details: Homo sapiens
[28] = tested on: A498; assay: Antiproliferative activity against A498 cell line at 3 uM; assay type: functional; details: Homo sapiens
[29] = tested on: MCF7; assay: Antiproliferative activity against MCF7 cell line at 3 uM; assay type: functional; details: Homo sapiens
[30] = Antiproliferative activity against 251L cell line at 3 uM; assay type: functional; details: Homo sapiens
[31] = organism: Homo sapiens; assay: as §1; assay type: functional
[32] = organism: Homo sapiens; assay: as §2; assay type: functional
[33] = organism: Homo sapiens; assay: as §3; assay type: functional
[34] = organism: Homo sapiens; assay: as §4; assay type: functional
[35] = tested on: MDA-MB-231; assay: as §5; assay type: functional; details: Homo sapiens
[36] = tested on: HUVEC; assay: Inhibition of HUVEC tubule formation assessed as number of branches at 100 nM; assay type: functional, Homo sapiens
[37] = tested on: HUVEC; assay: Inhibition of HUVEC tubule formation assessed as length of branches at 100 nM; assay type: functional, Homo sapiens
[38] = tested on: HUVEC; assay: Inhibition of HUVEC tubule formation assessed as length of branches at 10 nM; assay type: functional, Homo sapiens
[39] = tested on: HUVEC; assay: Inhibition of HUVEC tubule formation assessed as number of branches at 10 nM; assay type: functional, Homo sapiens
[40] = tested on: HUVEC; assay: Inhibition of HUVEC tubule formation assessed as number of branches at 0.25 pM; assay type: functional, Homo sapiens
[41] = Maximum tolerated dose in iv dosed nude mouse; assay type: ADME, organism-based; details: in vivo
[42] = tested on: HUVEC; assay: Inhibition of HUVEC tubule formation assessed as number of branches at 0.75 pM; assay type: functional, Homo sapiens
[43] = tested on: HUVEC; assay: Inhibition of HUVEC tubule formation assessed as length of branches at 0.75 pM; assay type: functional, Homo sapiens
[44] = tested on: HUVEC; assay: Inhibition of HUVEC tubule formation assessed as length of branches at 0.25 pM; assay type: functional, Homo sapiens

SMILES	inhibition at 10 µM [1] [%]	inhibition at 10 µM [2] [%]	growth, % of control at 10 µM [3] [%]	growth, % of control at 10 µM [4] [%]	inhibition at 10 µM [5] [%]	growth, % of control at 10 µM [6] [%]	inhibition at 10 µM [7] [%]	growth, % of control at 10 µM [8] [%]	growth, % of control at 10 µM [9] [%]	inhibition at 10 µM [10] [%]	inhibition at 10 µM [11] [%]	inhibition at 10 µM [12] [%]	IC50 [16] [nM]	IC50 [17] [nM]	further results
C[C@@H]1C[C@H](C)C[C@H](C)[C@@H](O)CC(=O)O[C@H]([C@H](C)CC(=O)O)C/C=C/C=C(/C#N)[C@H](O)[C@@H](C)C1	24	38	9	15	12	5	55	26	20	32	21	13	–	–	–
C[C@@H]1C[C@H](C)C[C@H](C)[C@@H](O)CC(=O)O[C@H]([C@H](C)[C@H](C)C(=O)O)C/C=C/C=C(/C#N)[C@H](O)[C@@H](C)C1	7	3	4	7	9	3	7	12	7	6	9	3	70	1	Activity [13]: 62; Activity [14]: 246; Activity [15]: 116; Activity [18]: 63
COc1cccc2c1C(=O)c1c(O)c3c(c(O)c1C2=O)C[C@@](O)(C(=O)CO)C[C@@H]3O[C@H]1C[C@H](N)[C@H](O)[C@H](C)O1 [DOXORUBICIN]	–	–	–	–	–	–	–	–	–	–	–	–	–	–	inhibition at 3 µM [19]: 10%; inhibition at 3 µM [20]: 7%; inhibition at 3 µM [21]: 3%; inhibition at 3 µM [22]: 6%; inhibition at 3 µM [23]: 9%; inhibition at 3 µM [24]: 6%; inhibition at 3 µM [25]: 11%; inhibition at 3 µM [26]: 10%; inhibition at 3 µM [27]: 5%; inhibition at 3 µM [28]: 11%; inhibition at 3 µM [29]: 12%; inhibition at 3 µM [30]: 15%
C[C@@H]1C[C@H](C)C[C@H](C)[C@@H](O)CC(=O)O[C@H](C[C@@H](C)C(=O)O)C/C=C/C=C(/C#N)[C@H](O)[C@@H](C)C1	34	49	9	25	16	6	68	32	26	29	30	14	–	–	–
C[C@@H]1C[C@H](C)C[C@H](C)[C@@H](O)CC(=O)O[C@H](C[C@H](C)C(=O)O)C/C=C/C=C(/C#N)[C@H](O)[C@@H](C)C1	92	84	67	62	76	56	74	81	90	91	78	57	–	–	–
CS[C@H](C[C@@H]1C/C=C/C=C(/C#N)[C@H](O)[C@@H](C)C[C@H](C)C[C@H](C)C[C@H](C)[C@@H](O)CC(=O)O1)C(=O)O	59	79	64	59	48	42	75	67	81	102	68	54	–	–	–
C/C1=C/C=C/C[C@@H]([C@@H]2CCC[C@H]2C(=O)O)OC(=O)C[C@H](O)[C@@H](C)C[C@@H](C)C[C@@H](C)C[C@H](C)[C@H]1O	–	–	–	–	–	–	–	–	–	–	–	–	–	–	Activity [1]: inactive; Activity [2]: inactive; Activity [31]: inactive; Activity [32]: inactive; Activity [5]: inactive; Activity [33]: inactive; Activity [7]: inactive; Activity [34]: inactive; Activity [35]: inactive; Activity [17]: inactive; Activity [10]: inactive; Activity [11]: inactive; Activity [12]: inactive
C[C@@H]1C[C@H](C)C[C@H](C)[C@@H](O)CC(=O)O[C@H]([C@@H]2CCC[C@H]2C(=O)O)C/C=C/C=C(/C#N)[C@H](O)[C@@H](C)C1 [BORRELIDIN]	7	4	2	6	13	2	5	8	12	11	8	3	20	0.5	Activity [36]: 233; Activity [37]: 65; Activity [38]: 64; Activity [39]: 230
C[C@@H]1C[C@H](C)C[C@H](C)[C@@H](O)CC(=O)O[C@H]([C@@H]2CC[C@H]2C(=O)O)C/C=C/C=C(/C#N)[C@H](O)[C@@H](C)C1	9	7	3	6	9	3	16	9	8	16	9	4	300	500	Activity [40]: 38; MTD [41]: > 130 mg/kg; Activity [42]: 40; Activity [43]: 63; Activity [44]: 65
